Source: ChEMBL document CHEMBL4651402, “Screening of ~5500 FDA-approved drugs and clinical candidates for anti-SARS-CoV-2 activity” (2021)

Test system: SARS-CoV-2
Assay: microbe, parasite or virus in culture
Conditions: Severe acute respiratory syndrome coronavirus 2, Vero C1008, 48 h

SMILES	IC50	IC50 (read-out: pIC50 (converted))
Cc1c(C(C)C)c(=O)n(-c2ccccc2)n1C [PROPYPHENAZONE]	> 20 µM	> 20 µM
C=CC(=O)Nc1cccc(Nc2nc(Nc3ccc(N4CCN(C(C)=O)CC4)cc3OC)ncc2C(F)(F)F)c1 [ROCILETINIB]	> 20 µM	> 20 µM
Cc1cn2nc([C@@H]3CCCCN3C(=O)c3cc(Cl)ccc3NS(C)(=O)=O)cc2nc1N1CC[C@H](N)C1 [PRESATOVIR]	> 20 µM	> 20 µM
c1ccc2c(CCC3CCNCC3)c[nH]c2c1 [INDALPINE]	> 20 µM	> 20 µM
Nc1ncnc2c1ncn2[C@@H]1O[C@H](COP(=O)(O)O)[C@@H](O)[C@H]1O [ADENOSINE PHOSPHATE]	> 20 µM	> 20 µM
CCc1nc2c(N)nc3ccccc3c2n1CCCCNS(C)(=O)=O [CPG-52852]	> 20 µM	> 20 µM
Cc1ccc2c(c1)[C@H]1CN(C)CC[C@H]1N2 [STOBADINE]	> 20 µM	> 20 µM
Cn1c(=O)cc(N2CCC[C@@H](N)C2)n(Cc2cc(F)ccc2C#N)c1=O [TRELAGLIPTIN]	> 20 µM	> 20 µM
NC(=O)CC[C@H](N)C(=O)O [GLUTAMINE]	> 20 µM	> 20 µM
CCOC(=O)C(CCc1ccccc1)NC(C)C(=O)N1CC2(CC1C(=O)O)SCCS2 (stereo unspecified)	> 20 µM	> 20 µM
Cc1nnc(NS(=O)(=O)c2ccc(N)cc2)s1 [SULFAMETHIZOLE]	> 20 µM	> 20 µM
CN1C(=O)CC(C)(c2ccccc2)C1=O (stereo unspecified) [METHSUXIMIDE]	> 20 µM	> 20 µM
CC(C)(C)C(=O)OCOC(=O)[C@@H]1N2C(=O)[C@@H](/N=C/N3CCCCCC3)[C@H]2SC1(C)C [AMDINOCILLIN PIVOXIL]	> 20 µM	> 20 µM
Nc1nncs1	> 20 µM	> 20 µM
COc1ccc(S(=O)(=O)N2c3ccc(Cl)cc3[C@](O)(c3ccccc3Cl)[C@@H]2C(=O)N2CCC[C@H]2C(N)=O)cc1OC [RELCOVAPTAN]	> 20 µM	> 20 µM
C[N+](C)(C)CC[N+]1(C)Cc2c(Cl)c(Cl)c(Cl)c(Cl)c2C1 [CHLORISONDAMINE]	> 20 µM	> 20 µM
c1ccc2c(Cc3c[nH]c4ccccc34)c[nH]c2c1 [ARUNDINE]	> 20 µM	> 20 µM
NC[C@@H]1OB(O)c2c(OCCCO)cccc21	> 20 µM	> 20 µM
COc1ccc(CCN(C)CCCC(C#N)(c2ccc(OC)c(OC)c2)C(C)C)cc1OC (stereo unspecified)	> 20 µM	> 20 µM
CN1[C@@H]2CC[C@H]1C[C@@H](OC(=O)C(CO)c1ccccc1)C2 (stereo partly specified) [ATROPINE]	> 20 µM	> 20 µM
Oc1ccccc1 [PHENOL]	> 20 µM	> 20 µM
COc1ccc2c(c1)c(CC(=O)NO)c(C)n2C(=O)c1ccc(Cl)cc1 [OXAMETACIN]	> 20 µM	> 20 µM
O=C(O)c1cc(NC(=O)[C@@H](Cc2ccccc2F)NC(=O)c2cc3[nH]cnc3cc2C(=O)NCC2CCCCCC2)cc(C(=O)O)c1	> 20 µM	> 20 µM
CCCCC1C(=O)N(c2ccccc2)N(c2ccccc2)C1=O [PHENYLBUTAZONE]	> 20 µM	> 20 µM
CCOc1cc2c(c(F)c1OCC)C(=N)N(CC(=O)c1cc(N3CCOCC3)c(OC)c(C(C)(C)C)c1)C2 [ATOPAXAR]	> 20 µM	> 20 µM
C[C@@H](NCCc1ccc(O)cc1)[C@@H](O)c1ccc(O)cc1 [rel-RITODRINE]	> 20 µM	> 20 µM

SMILES	IC50	IC50 (read-out: pIC50 (converted))
O=C1NC(=O)C(c2ccccc2)(c2ccccc2)N1 [PHENYTOIN]	> 20 µM	> 20 µM
Nc1c(O)cccc1C(=O)CC(N)C(=O)O (stereo unspecified)	> 20 µM	> 20 µM
C/N=C(/Cc1ccc2ccccc2c1)NC [NAPACTADINE]	> 20 µM	> 20 µM
CCc1nn(CCCN2CCN(c3cccc(Cl)c3)CC2)c(=O)n1CCOc1ccccc1 [NEFAZODONE]	> 20 µM	> 20 µM
O=C1Nc2ccc(Cl)cc2C(c2ccccc2Cl)=NC1O (stereo unspecified) [LORAZEPAM]	> 20 µM	> 20 µM
O=C(N/N=C/c1ccccc1O)c1ccncc1 [SALINAZID]	> 20 µM	> 20 µM
COC(=O)C1=COC(C)C2C[n+]3ccc4c([nH]c5ccccc54)c3CC12 (stereo unspecified)	> 20 µM	> 20 µM
CN1C2CCC1CC(O)C2 (stereo unspecified)	> 20 µM	> 20 µM
CN1CC(=O)N2[C@@H](c3ccc4c(c3)OCO4)c3[nH]c4ccccc4c3C[C@@H]2C1=O	> 20 µM	> 20 µM
O=C(/C=C\n1cnc(-c2cc(C(F)(F)F)cc(C(F)(F)F)c2)n1)NNc1cnccn1 [SELINEXOR]	> 20 µM	> 20 µM
CN(C(=O)c1ccc(F)cc1C(F)(F)F)C1CCN(c2nnc(-c3ccnn3C)c3ccccc23)CC1 [TALADEGIB]	> 20 µM	> 20 µM
CC12CCC3C(CCC4CC(N)C(O)CC43C)C1CCC2=O (stereo unspecified)	> 20 µM	> 20 µM
COC(=O)CCc1ccc(OCC(O)CNC(C)C)cc1 (stereo unspecified) [ESMOLOL]	> 20 µM	> 20 µM
CC(=O)N1CCN(c2ccc(OC[C@@H]3CO[C@](Cn4ccnc4)(c4ccc(Cl)cc4Cl)O3)cc2)CC1	> 20 µM	> 20 µM
O=C(O)C1=CCNCC1 [ISOGUVACINE]	> 20 µM	> 20 µM
CN[C@@H](C)Cc1ccccc1 [METHAMPHETAMINE]	> 20 µM	> 20 µM
CCOC(=O)C1(c2ccccc2)CCN(C)CC1 [MEPERIDINE]	> 20 µM	> 20 µM
CC(=O)S[C@@H]1CC2=CC(=O)CCC2(C)C2CCC3(C)C(CC[C@@]34CCC(=O)O4)C21 (stereo partly specified)	> 20 µM	> 20 µM
CN(C)CCCSc1ccccc1NC(=O)/C=C/c1ccccc1 [CINANSERIN]	> 20 µM	> 20 µM
CCCOc1ccccc1-c1nc2[nH]nnc2c(=O)[nH]1 [ZAPRINAST]	> 20 µM	> 20 µM
C[C@@H]1[C@@H]2Cc3ccc(O)cc3C1(C)CCN2C	> 20 µM	> 20 µM
O=C(Nc1ccc(Br)cc1)c1cc(Br)cc(Br)c1O [TRIBROMSALAN]	> 20 µM	> 20 µM
CO[C@@H]1[C@H](OP(=O)(OC[C@H]2O[C@@H](n3cnc4c(N)ncnc43)C[C@@H]2O)SCOC(=O)OC(C)C)[C@@H](CO)O[C@H]1n1ccc(=O)[nH]c1=O (stereo partly specified) [INARIGIVIR SOPROXIL]	> 20 µM	> 20 µM
CN(C)CCCO[C@@H]1[C@H]2OC(C)(C)O[C@H]2O[C@@H]1[C@H](O)CO [AMIPRILOSE]	> 20 µM	> 20 µM
O=C(N[C@@H]1CC[C@@H](c2cccc(F)c2F)CN(CC(F)(F)F)C1=O)N1CCC(n2c(=O)[nH]c3ncccc32)CC1 [TELCAGEPANT]	> 20 µM	> 20 µM
[O-][n+]1cccc(C(Cl)=NOC[C@H](O)CN2CCCCC2)c1	> 20 µM	> 20 µM

SMILES	IC50	IC50 (read-out: pIC50 (converted))
Nc1cc(Cl)c(N=C2NCCN2)c(Cl)c1 [APRACLONIDINE]	> 20 µM	> 20 µM
Cc1nc2ccccn2c(=O)c1CCN1CCc2oc3ccccc3c2C1 [LUSAPERIDONE]	> 20 µM	> 20 µM
Oc1c(Cl)cc(Cl)c2cccnc12 [CHLOROXINE]	> 20 µM	> 20 µM
CCCCC(C(=O)O)C(=O)N(Nc1ccccc1)c1ccccc1 (stereo unspecified) [BUMADIZONE]	> 20 µM	> 20 µM
Nc1nc(O)c2ncn(CCC(CO)CO)c2n1 [PENCICLOVIR]	> 20 µM	> 20 µM
O=C1CN2CCOC2(c2ccccc2Cl)c2cc(Cl)ccc2N1 (stereo unspecified) [CLOXAZOLAM]	> 20 µM	> 20 µM
CC(=O)N[C@@H](CS)C(=O)O [ACETYLCYSTEINE]	> 20 µM	> 20 µM
CCCCN(CCCC)CCCOC(=O)c1ccc(N)cc1 [BUTACAINE]	> 20 µM	> 20 µM
Nc1nc(Cl)nc2c1ncn2[C@@H]1O[C@H](CO)[C@@H](O)[C@@H]1F [CLOFARABINE]	> 20 µM	> 20 µM
NC1=NCC2c3ccccc3Cc3ccccc3N12 (stereo unspecified) [EPINASTINE]	> 20 µM	> 20 µM
O=C1C(=O)c2ncccc2-c2cccnc21 [PHANQUONE]	> 20 µM	> 20 µM
CNC(=O)c1cccc2cc(Oc3ccnc4cc(OCC5(N)CC5)c(OC)cc34)ccc12 [LUCITANIB]	> 20 µM	> 20 µM
CCCCC1OC(=O)c2ccccc21 (stereo not drawn) [RAC-3-N-BUTYLPHTHALIDE]	> 20 µM	> 20 µM
COc1cc2nccc(Oc3ccc(NC(=O)C4(C(=O)Nc5ccc(F)cc5)CC4)cc3)c2cc1OC [CABOZANTINIB]	> 20 µM	> 20 µM
O=c1cc(-c2ccc(O)c(O)c2)oc2cc(O)cc(O)c12 [LUTEOLIN]	> 20 µM	> 20 µM
Nc1[nH]cnc2ncnc1-2 [ADENINE]	> 20 µM	> 20 µM
OC1CCCCC1N1CCC(c2ccccc2)CC1 (stereo unspecified)	> 20 µM	> 20 µM
CC(C(=O)O)c1ccc(C(=O)c2ccccc2)s1 (stereo unspecified) [TIAPROFENIC ACID]	> 20 µM	> 20 µM
CC(C)(C)NCC(O)COc1ccc(NC(=O)NC2CCCCC2)cc1 (stereo unspecified) [TALINOLOL]	> 20 µM	> 20 µM
O=C1O[C@H]([C@@H](O)CO)C(O)=C1O [ASCORBIC ACID]	> 20 µM	> 20 µM
NC(C(=O)NC1C(=O)N2C(C(=O)O)=C(CSc3c[nH]nn3)CSC12)c1ccc(O)cc1 (stereo unspecified)	> 20 µM	> 20 µM
Cc1cc2c(C(C)C)c(O)c(O)c(C=O)c2c(O)c1-c1c(C)cc2c(C(C)C)c(O)c(O)c(C=O)c2c1O [GOSSYPOL]	> 20 µM	> 20 µM
C/N=C(/NC)NCc1ccc(OC)cc1 [MEOBENTINE]	> 20 µM	> 20 µM
N=C(N)NC(=N)Nc1ccccc1 [PHENYL BIGUANIDE]	> 20 µM	> 20 µM
CC[N+]1(C)CCCC(OC(=O)C(O)(c2ccccc2)c2ccccc2)C1 (stereo unspecified) [PIPENZOLATE]	> 20 µM	> 20 µM
O=C(N[C@H]1CN2CCC1CC2)c1c[nH]c2ccsc2c1=O [PUMOSETRAG]	> 20 µM	> 20 µM
